Reference: paper PMC9525761, “Cytotoxicity and Genotoxicity of Biogenic Silver Nanoparticles in A549 and BEAS-2B Cell Lines” (Bioinorganic Chemistry and Applications, 2022)
Where two headings read alike, the source gives them in different places.

Tests used:
Type in all cases: cell-based, human
BEAS-2B cells [1] = test: MTT cytotoxicity assay, BEAS-2B cells; conditions: for IC50: table prints none, read-out: average IC50, BEAS-2B cells (mean ± SD)
A549 cells [2] = test: MTT cytotoxicity assay, A549 cells (with selectivity index); conditions: for Selectivity index (SI): IC50 normal cells (BEAS-2B) / IC50 cancer cells (A549); for IC50: table prints none, read-out: average IC50, A549 cells (mean ± SD)
Method: Both A549 and BEAS-2B cells were originally purchased from the American Type Culture Collection (ATCC, USA). Both cells were cultured in Dulbecco's Modified Eagle's Medium (DMEM: Gibco, USA) and 1 : 1 mixture of DMEM and Ham's F-12 (DMEM-F12; Gibco, USA) medium with phenol red and supplemented with 10% fetal bovine serum (FBS; Gibco, USA), 0.1% (v/v) penicillin-streptomycin, and 2 mM L-glutamine (PenStrep; Gibco, USA). The cell lines were maintained in a humidified environment at 37°C with 5% CO2.
The culture medium alone (without cells) was included as a blank for this test. A549 and BEAS-2B cells were treated with Cisplatin as a positive control. A total of 10 μL of MTT solution (5 mg/mL) was applied to each well at about 24 to 72 hours after treatment and was further incubated for 4 hours in the dark at 37°C with 5% CO2. Upon incubation, the mixture solution was aspirated, and 100 μL of dimethyl sulfoxide (DMSO) (Fisher Scientific, USA) was added to solubilise the purple formazan. The optical density (O.D.) of each sample was measured at a 570 nm wavelength using a microplate reader (BioTek Instruments, Inc, USA). The percentage (%) of cell viability was determined using the following formula [37]:(1) Cell viability%=O.D.treatment–O.D.blank/O.D.untreated cell–O.D.blank×100%.
Based on the measured cell viability (%), a graph was created to display the dose-response curves for each cell line. […] The data was expressed as a mean and standard deviation with each experiment consisting of triplicates. Statistical differences between untreated cells and treated cells were determined using Student's t-test (IBM SPSS Statistics 27).

A549 cells [3] = test: Comet Assay DNA damage, A549 cells; design: key to DNA damage class (comet visual scoring, Classes 0–4): Class 4: Classes 0–4 to be used for visual scoring. The increased number of classes represents the increase in DNA damage severity; Class 3: Classes 0–4 to be used for visual scoring. The increased number of classes represents the increase in DNA damage severity; Class 2: Classes 0–4 to be used for visual scoring. The increased number of classes represents the increase in DNA damage severity; conditions: for DNA damage class (comet visual scoring, Classes 0–4): IC50 for 24 h (H2O2: 100 μM); for % DNA in tail / Olive tail moment / Tail length (px): IC50 for 24 h (H2O2: 100 μM, 20 minutes)
Method: (§1) The Comet Assay® kit (Trevigen, Inc, USA) was used to perform DNA damage activity analysis. […] After being detached by Accutase (BD™Bioscience, USA), the cells were collected and washed with ice-cold PBS. […] The cells were then lysed in the lysis solution at 4°C for 30 minutes. Then, the cells were kept in an alkaline unwinding solution at room temperature for 20 minutes to allow the DNA to unwind. The test was immediately followed by electrophoresis, performed at 21 V and 300 mA for 30 minutes. Slides were washed in 70% ethanol and water and stained with SYBR® gold nucleic acid gel stain (Invitrogen, Thermo Fisher Scientific, USA) before visualisation under the Olympus IX71 inverted fluorescence microscope (Olympus, Tokyo, Japan). A total of 50 cells were randomly selected and captured per sample at 100× magnification and analysed using the Open Comet Image J available at https:/www.cometbio.org/. Tail length, percentage of tail DNA, and Olive Tail Moment (OTM) were calculated for DNA damage assessment.

A549 cells [4] = test: Intracellular ROS, CM-H2DCFDA assay, A549 cells; conditions: A549, treated with IC50 for 24 hours; control (untreated cells) set to 1
Method: (§2) After exposure, cells were washed with PBS and loaded with 2.5 μM of CM-H2DCFDA in phenol red and FBS-free media in the dark for 30 minutes at 37°C. Subsequently, the reaction mixture was aspirated; cells were washed with fresh culture media and replaced with 100 μL of culture media. The DCF fluorescence intensity was measured at 485 nm excitation and 520 nm emission using a FLUOstar Omega fluorescence plate reader (BMG Labtech, Ortenberg, Germany). Results are presented as mean fold change ± standard deviation of three independent experiments.

A549 cells [5] = test: Apoptosis by DAPI and AO/PI double staining, A549 cells; conditions: A549, IC50, 24 hours
Method: (§3) DAPI staining is used to assess apoptosis-related morphological changes such as nuclear fragmentation or condensation. […] AO stains both live and dead cells, whereas PI stains only the dead cells. […] Following incubation, the cells were washed with PBS and then fixed with 1 mL of 4% paraformaldehyde (Sigma-Aldrich, St. Louis, Missouri, USA) and cold 70% ethanol for 10 minutes at room temperature. Then, the cells were stained with a 1 : 1 ratio of 10 µg/mL of DAPI (Nacalai, Tesque chemical, Kyoto, Japan) and 10 μg/mL acridine orange/propidium iodide (Sigma-Aldrich, St. Louis, Missouri, USA) and incubated for 30 minutes in the dark. An Olympus IX71 inverted fluorescence microscope (Olympus, Tokyo, Japan) was used to observe and record the morphology of the cells.

BEAS-2B cells [6] = test: Intracellular ROS, CM-H2DCFDA assay, BEAS-2B cells; conditions: treated with IC50 for 24 hours, control (untreated cells) set to 1
Method: as §2

BEAS-2B cells [7] = test: Apoptosis by DAPI and AO/PI double staining, BEAS-2B cells; conditions: IC50, 24 hours
Method: as §3

BEAS-2B cells [8] = test: Comet Assay DNA damage, BEAS-2B cells; design: key to DNA damage class (comet visual scoring, Classes 0–4): Class 4: Classes 0–4 to be used for visual scoring. The increased number of classes represents the increase in DNA damage severity; Class 3: Classes 0–4 to be used for visual scoring. The increased number of classes represents the increase in DNA damage severity; Class 2: Classes 0–4 to be used for visual scoring. The increased number of classes represents the increase in DNA damage severity; conditions: for DNA damage class (comet visual scoring, Classes 0–4): IC50 for 24 h (H2O2: 100 μM); for % DNA in tail / Olive tail moment / Tail length (px): IC50 for 24 h (H2O2: 100 μM, 20 minutes)
Method: as §1

Compound	IC50 (BEAS-2B cells [1]; 24 h) [µM]	IC50 (BEAS-2B cells [1]; 48 h) [µM]	IC50 (BEAS-2B cells [1]; 72 h) [µM]	DNA damage class (comet visual scoring, Classes 0–4) (A549 cells [3])	% DNA in tail (A549 cells [3]) [%]	Olive tail moment (A549 cells [3])	Tail length (px) (A549 cells [3])	DNA damage class (comet visual scoring, Classes 0–4) (BEAS-2B cells [8])	% DNA in tail (BEAS-2B cells [8]) [%]	Olive tail moment (BEAS-2B cells [8])	Tail length (px) (BEAS-2B cells [8])	further results
O=[N+]([O-])[O-].[Ag+] [AgNO3, silver nitrate]	16 ± 0.03	15 ± 0.02	14 ± 0.02									concentrations decreasing proliferation of BEAS-2B cells to nearly 50% (BEAS-2B cells [1]; after 24 to 74 hours of treatment (so in the source)): 20 to 100 µM
N.N.[Cl][Pt][Cl] [Cisplatin]	69.2 ± 1.75	31.6 ± 3.27	18.84 ± 0.13	Class 3	48.26 ± 4.54	28.81 ± 4.94	73.83 ± 8.9	Class 4	63.79 ± 3.01	78.49 ± 0.8	160.07 ± 3.3	Selectivity index (SI) (A549 cells [2]; 24 h): 1.32; Selectivity index (SI) (A549 cells [2]; 48 h): 1.66; Selectivity index (SI) (A549 cells [2]; 72 h): 1.08; IC50 (A549 cells [2]; MTT, 24 h): 52.5 ± 7.92 µM; IC50 (A549 cells [2]; MTT, 48 h): 19.1 ± 3.19 µM; IC50 (A549 cells [2]; MTT, 72 h): 17.5 ± 0.6 µM; concentration at which A549 cells were significantly dead (A549 cells [2]; MTT, all three time points (24, 48, 72 h)): 50 µM; concentration at which BEAS-2B cells were significantly dead (BEAS-2B cells [1]; all three time points (24, 48, 72 h)): 65 µM; ROS level, DCF fold (A549 cells [4]): 1.16 ± 0.04 fold change; mode of cell death (DAPI, AO/PI staining), in words (A549 cells [5]): induce apoptosis; ROS level, DCF fold (BEAS-2B cells [6]): 1.23 ± 0.01 fold change; mode of cell death (DAPI, AO/PI staining), in words (BEAS-2B cells [7]): induce apoptosis
OO [H2O2]				Class 2	35.64 ± 9.31	9.51 ± 3.49	25.3 ± 6.96	Class 4	85.86 ± 2.71	27.63 ± 4.6	53.91 ± 9.95	
